Measured values as given in patent publication US12077503B2, “Substituted cyclic amides and their use as herbicides” (FMC CORPORATION, priority 2015, dated 2024).

Assays:
Assay type in all cases: in vivo
[1] = tested on: ragweed (common ragweed, Ambrosia elatior); assay: Test A preemergence; details: for Plant response rating, Ragweed: 125 g ai/ha, visual injury after approximately 10 d; for Plant response rating, Ragweed / Ragweed plant response rating (0 to 100 scale, 0 is no effect, 100 is complete control): Preemergence; for Ragweed plant response rating (0 to 100 scale, 0 is no effect, 100 is complete control): visual injury approx. 10 d
From the text: (§1) Seeds of plant species selected from barnyardgrass (Echinochloa crus-galli), Kochia (Kochia scoparia), ragweed (common ragweed, Ambrosia elatior), ryegrass, Italian (Italian ryegrass, Lolium multiflorum), crabgrass, large (Digitaria sanguinalis), giant foxtail (Setaria faberii), green foxtail (Setaria viridis), morningglory (Ipomoea spp.), pigweed (Amaranthus retroflexus), velvetleaf (Abutilon theophrasti), wheat (Triticum aestivum), and corn (Zea mays) were planted into a blend of loam soil and sand and treated preemergence with a directed soil spray using test chemicals formulated in anon-phytotoxic solvent mixture which included a surfactant.
(§2) At the same time, plants selected from these crop and weed species and also blackgrass (Alopecurus myosuroides), and Galium (catchweed bedstraw, Galium aparine) were planted in pots containing the same blend of loam soil and sand and treated with postemergence applications of test chemicals formulated in the same manner. Plants ranged in height from 2 to 10 cm and were in the one- to two-leaf stage for the postemergence treatment. Treated plants and untreated controls were maintained in a greenhouse for approximately 10 d, after which time all treated plants were compared to untreated controls and visually evaluated for injury. Plant response ratings, summarized in Table A, are based on a 0 to 100 scale where 0 is no effect and 100 is complete control. A dash (-) response means no test result.

[2] = tested on: pigweed (Amaranthus retroflexus); assay: Test A preemergence; details: for Plant response rating, Pigweed: 125 g ai/ha, visual injury after approximately 10 d; for Plant response rating, Pigweed / Pigweed plant response rating (0 to 100 scale, 0 is no effect, 100 is complete control): Preemergence; for Pigweed plant response rating (0 to 100 scale, 0 is no effect, 100 is complete control): visual injury approx. 10 d
From the text: as §1, §2

[3] = tested on: barnyardgrass (Echinochloa crus-galli); assay: Test A preemergence; details: for Plant response rating, Barnyardgrass: 125 g ai/ha, visual injury after approximately 10 d; for Plant response rating, Barnyardgrass / Barnyardgrass plant response rating (0 to 100 scale, 0 is no effect, 100 is complete control): Preemergence; for Barnyardgrass plant response rating (0 to 100 scale, 0 is no effect, 100 is complete control): visual injury approx. 10 d
From the text: as §1, §2

Kochia (Kochia scoparia) [4] = assay: Test A preemergence; details: for Plant response rating, Kochia: 125 g ai/ha, visual injury after approximately 10 d; for Plant response rating, Kochia / Kochia plant response rating (0 to 100 scale, 0 is no effect, 100 is complete control): Preemergence; for Kochia plant response rating (0 to 100 scale, 0 is no effect, 100 is complete control): visual injury approx. 10 d
From the text: as §1, §2

[5] = tested on: giant foxtail (Setaria faberii); assay: Test A preemergence; details: for Plant response rating, Foxtail, Giant: 125 g ai/ha, visual injury after approximately 10 d; for Plant response rating, Foxtail, Giant / Foxtail, Giant plant response rating (0 to 100 scale, 0 is no effect, 100 is complete control): Preemergence; for Foxtail, Giant plant response rating (0 to 100 scale, 0 is no effect, 100 is complete control): visual injury approx. 10 d
From the text: as §1, §2

[6] = tested on: ryegrass, Italian (Italian ryegrass, Lolium multiflorum); assay: Test A preemergence; details: for Plant response rating, Ryegrass, Italian: 125 g ai/ha, visual injury after approximately 10 d; for Plant response rating, Ryegrass, Italian / Ryegrass, Italian plant response rating (0 to 100 scale, 0 is no effect, 100 is complete control): Preemergence; for Ryegrass, Italian plant response rating (0 to 100 scale, 0 is no effect, 100 is complete control): visual injury approx. 10 d
From the text: as §1, §2

[7] = tested on: blackgrass (Alopecurus myosuroides); assay: Test A postemergence
From the text: as §1, §2

[8] = tested on: ragweed (common ragweed, Ambrosia elatior); assay: Test A postemergence
From the text: as §1, §2

[9] = tested on: wheat (Triticum aestivum); assay: Test A postemergence
From the text: as §1, §2

[10] = tested on: pigweed (Amaranthus retroflexus); assay: Test A postemergence
From the text: as §1, §2

corn (Zea mays) = assay: Test A postemergence
From the text: as §1, §2

[11] = tested on: barnyardgrass (Echinochloa crus-galli); assay: Test A postemergence
From the text: as §1, §2

Kochia (Kochia scoparia) [12] = assay: Test A postemergence
From the text: as §1, §2

[13] = tested on: Galium (catchweed bedstraw, Galium aparine); assay: Test A postemergence
From the text: as §1, §2

[14] = tested on: giant foxtail (Setaria faberii); assay: Test A postemergence
From the text: as §1, §2

[15] = tested on: ryegrass, Italian (Italian ryegrass, Lolium multiflorum); assay: Test A postemergence
From the text: as §1, §2

[16] = 0 to 100 scale where 0 is no effect and 100 is complete control
[17] = 125 g ai/ha, postemergence, visual rating after approx. 10 d, 0 to 100 scale (0 no effect, 100 complete control)
[18] = Postemergence, 500 g ai/ha, 0 to 100 scale where 0 is no effect and 100 is complete control

Compound | Plant response rating, Ragweed [1, 16] | Ragweed plant response rating (0 to 100 scale, 0 is no effect, 100 is complete control) ([1]; 500 g ai/ha) | Plant response rating, Pigweed [2, 16] | Pigweed plant response rating (0 to 100 scale, 0 is no effect, 100 is complete control) ([2]; 500 g ai/ha) | Plant response rating, Barnyardgrass [3, 16] | Barnyardgrass plant response rating (0 to 100 scale, 0 is no effect, 100 is complete control) ([3]; 500 g ai/ha) | Plant response rating, Kochia (Kochia (Kochia scoparia) [4]; [16]) | Kochia plant response rating (0 to 100 scale, 0 is no effect, 100 is complete control) (Kochia (Kochia scoparia) [4]; 500 g ai/ha) | Plant response rating, Foxtail, Giant [5, 16] | Foxtail, Giant plant response rating (0 to 100 scale, 0 is no effect, 100 is complete control) ([5]; 500 g ai/ha) | Plant response rating, Ryegrass, Italian [6, 16] | Ryegrass, Italian plant response rating (0 to 100 scale, 0 is no effect, 100 is complete control) ([6]; 500 g ai/ha) | Plant response rating, Blackgrass [7, 17] | Plant response rating, Blackgrass [7, 18] | Plant response rating, Ragweed [8, 17] | Plant response rating, Ragweed [8, 18] | Plant response rating, Wheat [9, 17] | Plant response rating, Wheat [9, 18] | Plant response rating, Pigweed [10, 17] | Plant response rating, Pigweed [10, 18] | also measured
O=C1NC[C@H](c2ccc3sccc3c2)[C@H]1C(=O)Nc1cccc(F)c1F [Compound 1128] |  |  |  |  |  |  |  |  |  |  |  |  |  |  |  |  |  |  |  |  | pest or weed control at 500 g/ha ([1]; Ambrosia artemisiifolia, pre-emergence, 240 h, 500 g ai/ha, preemergence, 0 to 100 scale where 0 is no effect and 100 is complete control, read-out: Ragweed plant response rating): 50%; pest or weed control at 500 g/ha ([2]; Amaranthus retroflexus, pre-emergence, 240 h, 500 g ai/ha, preemergence, 0 to 100 scale where 0 is no effect and 100 is complete control, read-out: Pigweed plant response rating): 0%; pest or weed control at 500 g/ha ([3]; Echinochloa crus-galli, pre-emergence, 240 h, 500 g ai/ha, preemergence, 0 to 100 scale where 0 is no effect and 100 is complete control, read-out: Barnyardgrass plant response rating): 90%; pest or weed control at 500 g/ha (Kochia (Kochia scoparia) [4]; Bassia scoparia, pre-emergence, 240 h, 500 g ai/ha, preemergence, 0 to 100 scale where 0 is no effect and 100 is complete control, read-out: Kochia plant response rating): 80%; pest or weed control at 500 g/ha ([5]; Setaria faberi, pre-emergence, 240 h, 500 g ai/ha, preemergence, 0 to 100 scale where 0 is no effect and 100 is complete control, read-out: Foxtail, Giant plant response rating): 90%; pest or weed control at 500 g/ha ([6]; Lolium multiflorum, pre-emergence, 240 h, 500 g ai/ha, preemergence, 0 to 100 scale where 0 is no effect and 100 is complete control, read-out: Ryegrass, Italian plant response rating): 40%; pest or weed control at 500 g/ha ([7]; Alopecurus myosuroides, post-emergence, 240 h, 500 g ai/ha, postemergence, 0 to 100 scale, 0 is no effect, 100 is complete control, read-out: Blackgrass plant response rating): 50%; pest or weed control at 500 g/ha ([8]; Ambrosia artemisiifolia, post-emergence, 240 h, 500 g ai/ha, postemergence, 0 to 100 scale, 0 is no effect, 100 is complete control, read-out: Ragweed plant response rating): 50%; plant injury at 500 g/ha ([9]; Triticum aestivum, post-emergence, 240 h, 500 g ai/ha, postemergence, 0 to 100 scale, 0 is no effect, 100 is complete control, read-out: Wheat plant response rating): 0%; pest or weed control at 500 g/ha ([10]; Amaranthus retroflexus, post-emergence, 240 h, 500 g ai/ha, postemergence, 0 to 100 scale, 0 is no effect, 100 is complete control, read-out: Pigweed plant response rating): 0%; plant injury at 500 g/ha (corn (Zea mays); Zea mays, post-emergence, 240 h, 500 g ai/ha, postemergence, 0 to 100 scale, 0 is no effect, 100 is complete control, read-out: Corn plant response rating): 50%; pest or weed control at 500 g/ha ([11]; Echinochloa crus-galli, post-emergence, 240 h, 500 g ai/ha, postemergence, 0 to 100 scale, 0 is no effect, 100 is complete control, read-out: Barnyardgrass plant response rating): 90%; pest or weed control at 500 g/ha (Kochia (Kochia scoparia) [12]; Bassia scoparia, post-emergence, 240 h, 500 g ai/ha, postemergence, 0 to 100 scale, 0 is no effect, 100 is complete control, read-out: Kochia plant response rating): 70%; pest or weed control at 500 g/ha ([13]; Galium, post-emergence, 240 h, 500 g ai/ha, postemergence, 0 to 100 scale, 0 is no effect, 100 is complete control, read-out: Galium plant response rating): 70%; pest or weed control at 500 g/ha ([14]; Setaria faberi, post-emergence, 240 h, 500 g ai/ha, postemergence, 0 to 100 scale, 0 is no effect, 100 is complete control, read-out: Foxtail, Giant plant response rating): 90%; pest or weed control at 500 g/ha ([15]; Lolium multiflorum, post-emergence, 240 h, 500 g ai/ha, postemergence, 0 to 100 scale, 0 is no effect, 100 is complete control, read-out: Ryegrass, Italian plant response rating): 30%
Cc1c(F)cccc1NC(=O)C1C(=O)N(C)CC1c1cccc(C(F)(F)F)c1 (centres unmarked) [Compound 573] | 0 | 50 | 40 | 80 | 90 | 100 | 70 | 80 | 90 | 100 | 80 | 90 | 70 | 70 | 20 | 60 | 70 | 70 | 30 | 40 | Plant response rating, Corn (corn (Zea mays); [17]): 80; Plant response rating, Corn (corn (Zea mays); [18]): 90; Plant response rating, Barnyardgrass [11, 17]: 90; Plant response rating, Barnyardgrass [11, 18]: 100; Plant response rating, Kochia (Kochia (Kochia scoparia) [12]; [17]): 50; Plant response rating, Kochia (Kochia (Kochia scoparia) [12]; [18]): 60; Plant response rating, Galium [13, 17]: 60; Plant response rating, Galium [13, 18]: 70; Plant response rating, Foxtail, Giant [14, 17]: 90; Plant response rating, Foxtail, Giant [14, 18]: 90; Plant response rating, Ryegrass, Italian [15, 17]: 70; Plant response rating, Ryegrass, Italian [15, 18]: 90
CN1CC(c2cccc(C(F)(F)F)c2)C(C(=O)Nc2cccc(Cl)c2F)C1=O (centres unmarked) [Compound 574] | 0 | 0 | 20 | 50 | 90 | 90 | 40 | 70 | 90 | 90 | 40 | 80 | 60 | 70 | 0 | 0 | 40 | 70 | 20 | 40 | Plant response rating, Corn (corn (Zea mays); [17]): 60; Plant response rating, Corn (corn (Zea mays); [18]): 80; Plant response rating, Barnyardgrass [11, 17]: 90; Plant response rating, Barnyardgrass [11, 18]: 90; Plant response rating, Kochia (Kochia (Kochia scoparia) [12]; [17]): 30; Plant response rating, Kochia (Kochia (Kochia scoparia) [12]; [18]): 60; Plant response rating, Galium [13, 17]: 40; Plant response rating, Galium [13, 18]: 50; Plant response rating, Foxtail, Giant [14, 17]: 80; Plant response rating, Foxtail, Giant [14, 18]: 80; Plant response rating, Ryegrass, Italian [15, 17]: 50; Plant response rating, Ryegrass, Italian [15, 18]: 70
